Paper PMC4691102, “Antioxidant and ACE Inhibitory Bioactive Peptides Purified from Egg Yolk Proteins” (International Journal of Molecular Sciences, 2015)

Key:
[1] = Lipid oxidation in linoleic acid model system, ferric thiocyanate (FTC) method; conditions: positive control 0.2 mg/mL; after four days incubation at 40 °C; 500 nm; mean of three independent experiments
Description: The inhibition of lipid peroxidation by the EYPH fractions was measured using linoleic acid oxidized as described below. The degree of oxidation was measured using (FTC) and (TBARS) methods. In order to prepare the reaction mixture, 50 mg of each sample was dissolved individually with 10 mL absolute ethanol, 0.13 mL linoleic acid, 4.87 mL distilled water and 10 mL 50 mM sodium phosphate buffer (pH 7). Samples were homogenized by a sonicator (Labsonic® M, B. Braun Biotech International, Melsungen, Germany). The tubes were then sealed tightly with silicone rubber caps and kept in the dark at 40 °C in an oven. […] A negative control was prepared in the same manner using distilled water in place of egg yolk hydrolysates. […] After exactly 3 min, the absorbance of the resulting ferric thiocyanate solution was read at 500 nm using a spectrophotometer (Kontron Instrument UNIKON 860, Cambridge, UK). […] The absorbance of the upper layer was measured at 532 nm using a spectrophotometer (Kontron Instrument UNIKON 860) Malonaldehyde standard curve was prepared using 1,1,3,3-tetramethoxypropane and TBARS were expressed as μg of malonaldehyde/mL. The percentage (%) of lipid oxidation inhibition was calculated according to the following formula: Lipid oxidation inhibition (%)=Absorbance of control − Absorbance of sample/Absorbance of control×100

[2] = Lipid oxidation in linoleic acid model system, TBARS method; conditions: positive control 0.2 mg/mL; after four days incubation at 40 °C; 532 nm; mean of three independent experiments
Description: The inhibition of lipid peroxidation by the EYPH fractions was measured using linoleic acid oxidized as described below. The degree of oxidation was measured using (FTC) and (TBARS) methods. In order to prepare the reaction mixture, 50 mg of each sample was dissolved individually with 10 mL absolute ethanol, 0.13 mL linoleic acid, 4.87 mL distilled water and 10 mL 50 mM sodium phosphate buffer (pH 7). Samples were homogenized by a sonicator (Labsonic® M, B. Braun Biotech International, Melsungen, Germany). The tubes were then sealed tightly with silicone rubber caps and kept in the dark at 40 °C in an oven. […] A negative control was prepared in the same manner using distilled water in place of egg yolk hydrolysates. The commercial antioxidants, 0.2 mg/mL of BHT and trolox were also used as positive controls. […] The absorbance of the upper layer was measured at 532 nm using a spectrophotometer (Kontron Instrument UNIKON 860) Malonaldehyde standard curve was prepared using 1,1,3,3-tetramethoxypropane and TBARS were expressed as μg of malonaldehyde/mL. The percentage (%) of lipid oxidation inhibition was calculated according to the following formula: Lipid oxidation inhibition (%)=Absorbance of control − Absorbance of sample/Absorbance of control×100

[3] = DPPH radical scavenging activity; conditions: for DPPH Scavenging activity: standard 0.2 mg/mL, 60 min, room temperature, dark, 517 nm, mean ± SD of three independent experiments; for Antioxidant activity (DPPH scavenging) of peptide compared with synthetic antioxidant: peptide 10 mg/mL versus 0.2 mg/mL BHT (Figure 7), abstract prints BHA
Description: The method used was in accordance with Bersuder et al. using the synthetic free radical DPPH. Briefly, a volume of 500 μL of selected fractions at different concentrations (0.5, 1, 5, 10 and 20 mg/mL) was mixed with 500 μL of 99.5% ethanol and 125 μL of 0.02% w/v DPPH prepared previously in 99.5% ethanol. The mixture was shaken vigorously then kept at room temperature in the dark. After 60 min, the color reduction of the DPPH substrate was measured at an absorbance of 517 nm. Trolox and BHT (both used at concentration 0.2 mg/mL) were also tested as positive controls for comparison. The DPPH radical scavenging activity was calculated as follows: Radical scavenging activity (%)=AC−AS/AC×100 where AC is the absorbance for negative control using 500 μL deionized water instead of sample, AS is the absorbance of the sample or positive controls (trolox/BHT). A lower absorbance of the reaction mixture indicated a higher DPPH radical-scavenging activity.

[4] = Hydroxyl radical scavenging activity (HRSA) assay; conditions: standard 0.2 mg/mL, 37 °C 1 h, pH 7.4, 532 nm, mean ± SD of three independent experiments
Description: The HRSA assay was performed as described by Wu et al.. The reaction mixture consisted of 0.1 mL of 10 mM FeSO4, 0.1 mL of 10 mM EDTA, 0.5 mL of 10 mM α-deoxyribose, 0.9 mL sodium phosphate buffer pH 7.4, and 0.2 mL of peptides at different concentrations (0.5, 1, 5, 10 and 20 mg/mL). All reagents were then thoroughly mixed in a tube and 0.2 mL of 10 mM hydrogen peroxide was added. The reaction mixture was then incubated at 37 °C for 1 h. Following incubation, 1 mL of 2.8% TCA and 1 mL of 1.0% TBA were added to the test tubes, and the contents boiled for 15 min. After cooling at room temperature, the absorbance of the mixture was measured at 532 nm. Trolox and BHT (both used at concentration 0.2 mg/mL) were also tested as positive controls for comparison. The HRSA was evaluated as a percentage of α-deoxyribose oxidation inhibition by the hydroxyl radical and calculated as follows: HRSA (%)=AC−AS/AC×100 where AC is the absorbance for negative control using 500 μL deionized water instead of sample, AS is the absorbance of the sample or positive controls (trolox/BHT).

[5] = Superoxide anion scavenging activity (pyrogallol autoxidation); conditions: standard 0.2 mg/mL, Tris-HCl pH 8.2, 25 °C, 320 nm, mean ± SD of three independent experiments
Description: In this assay, the alkaline condition enhances the autoxidation of pyrogallol to produce a superoxide anion, which, in turn, accelerates the autoxidation process by autocatalysis. The autoxidation of a pyrogallol method described by Marklund and Marklund was applied to measure the superoxide anion scavenging power of egg yolk peptides. The reaction mixture consisted of 1.0 mL of peptides sample at different concentrations ([…], 5.0, 10 and 20 mg/mL) and 1.8 mL of 50 mM Tris-HCl buffer, previously adjusted to pH 8.2. The mixture was incubated at 25 °C for 20 min. Then, 40 μL of 45 mM pyrogallol (prepared previously in 10 mM HCl) was added. The absorbance of the reaction mixture was measured at 320 nm immediately after adding pyrogallol at 1 min intervals up to 4 min. Trolox and BHT (both used at a concentration of 0.2 mg/mL) were also tested as positive controls for comparison.

[6] = Ferrous chelating activity assay (ferrozine); conditions: EDTA 0.2 mg/mL, 10 min room temperature, 563 nm, mean ± SD of three independent experiments
Description: The activity of the peptide to chelate ferrous Fe^2+ ions was measured according to the method of Ebrahimzadeh et al.. The reaction mixture contained 0.5 mL of isolated peptides at different concentrations (0.5, 1, 5, 10 and 20 mg/mL), 1.6 mL deionized water and 0.05 mL of 2 mM FeCl2. After 30 s, 0.1 mL of 5 mM ferrozine was added. After 10 min at room temperature, the absorbance of the Fe^2+-ferrozine complex was measured at 563 nm. EDTA (0.2 mg/mL) was also tested as a positive control for comparison. The activity of the peptide to chelate Fe^2+ was calculated as: Chelating ability (%) =AC−AS/AC×100 where AC is the absorbance of the control, using 0.5 mL deionized water instead of sample, AS is the absorbance of the sample or positive control EDTA.

[7] = target: angiotensin converting enzyme (ACE) (Homo sapiens, UniProt P12821); test: ACE inhibitory activity by HPLC (HHL substrate, hippuric acid at 228 nm); conditions: peptide 10 mg/mL versus captopril 0.5 mg/mL, Dunnett's test, p < 0.05, Figure 8
angiotensin converting enzyme (ACE), sequence (P12821 30-1306, species assumed): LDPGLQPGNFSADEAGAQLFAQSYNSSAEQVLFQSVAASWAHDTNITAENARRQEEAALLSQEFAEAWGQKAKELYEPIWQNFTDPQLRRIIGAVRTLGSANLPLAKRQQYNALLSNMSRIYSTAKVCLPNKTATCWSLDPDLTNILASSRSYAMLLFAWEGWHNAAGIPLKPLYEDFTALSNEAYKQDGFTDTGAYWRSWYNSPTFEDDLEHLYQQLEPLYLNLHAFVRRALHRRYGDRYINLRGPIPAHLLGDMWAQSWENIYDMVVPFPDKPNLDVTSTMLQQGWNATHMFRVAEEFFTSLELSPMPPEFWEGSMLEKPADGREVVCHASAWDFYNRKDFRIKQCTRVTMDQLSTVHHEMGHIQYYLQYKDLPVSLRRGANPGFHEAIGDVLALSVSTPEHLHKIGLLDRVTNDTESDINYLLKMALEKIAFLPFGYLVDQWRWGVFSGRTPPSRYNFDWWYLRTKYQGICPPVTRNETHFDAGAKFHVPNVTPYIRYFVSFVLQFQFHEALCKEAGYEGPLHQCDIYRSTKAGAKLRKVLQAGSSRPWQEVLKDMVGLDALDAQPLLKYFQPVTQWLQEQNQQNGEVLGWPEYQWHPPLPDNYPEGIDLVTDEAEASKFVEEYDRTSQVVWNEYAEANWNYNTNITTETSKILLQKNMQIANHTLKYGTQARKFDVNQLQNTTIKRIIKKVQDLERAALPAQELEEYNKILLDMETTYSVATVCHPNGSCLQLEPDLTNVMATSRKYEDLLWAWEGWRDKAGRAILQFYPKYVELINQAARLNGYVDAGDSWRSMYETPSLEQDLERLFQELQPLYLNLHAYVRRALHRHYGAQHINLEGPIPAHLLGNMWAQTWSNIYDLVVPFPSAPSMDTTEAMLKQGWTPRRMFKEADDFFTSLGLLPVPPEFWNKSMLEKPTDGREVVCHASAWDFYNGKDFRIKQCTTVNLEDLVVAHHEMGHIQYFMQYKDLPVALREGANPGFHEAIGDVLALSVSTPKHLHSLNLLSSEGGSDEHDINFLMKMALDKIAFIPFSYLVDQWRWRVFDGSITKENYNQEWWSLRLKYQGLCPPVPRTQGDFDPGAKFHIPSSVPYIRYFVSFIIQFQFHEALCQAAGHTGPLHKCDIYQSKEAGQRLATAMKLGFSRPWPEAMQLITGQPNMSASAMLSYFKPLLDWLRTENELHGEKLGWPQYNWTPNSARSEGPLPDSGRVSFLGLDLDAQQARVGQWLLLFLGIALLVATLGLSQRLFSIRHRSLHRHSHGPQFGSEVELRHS
Description: The measurement of ACE inhibitory activity was conducted using HPLC in accordance with a modified method of Wu et al. [53]. All samples were prepared with 100 mM borate buffer, containing 300 mM NaCl at pH = 8.3. […] The peptide fractions and HHL were mixed and maintained at 37 °C for 10 min in 2 mL polyethylene microcentrifuge tubes. ACE was maintained at 37 °C for 10 min before the two solutions were combined. The combined mixture was incubated at 37 °C for 30 min with continuous agitation. In order to terminate the reaction, 85 μL of 1 M HCl was added. Samples were analyzed on a C18 column (3.0 mm × 150 mm, 5 μm, phenomenex) and hippuric acid (HA) and HHL were detected at 228 nm using HPLC system (Ultimate 3000 HPLC, Thermo Fisher Scientific Inc., Loughborough, UK). Data were analyzed using integration software (Chromeleon, Thermo Fisher Scientific Inc., Loughborough, UK).

## Cc1cc(C(C)(C)C)c(O)c(C(C)(C)C)c1 [BHT, butylated hydroxyltoluene]
[1]
  Lipid Oxidation (%), FTC method: 23.3%
[2]
  Lipid Oxidation (%), TBARS method: 26.1%
[3]
  DPPH Scavenging activity: 23.6%
[3]; SD
  DPPH Scavenging activity: 23.60% ± 1.66%
[4]
  Hydroxyl radical scavenging activity: 58.97% ± 1.02%
[5]
  Superoxide anion scavenging activity: 67.45% ± 1.67%

## O=C(O)CN(CCN(CC(=O)O)CC(=O)O)CC(=O)O [EDTA]
[6]
  Fe2+ chelating activity: 97.54% ± 1.79%

## Cc1c(C)c2c(c(C)c1O)CCC(C)(C(=O)O)O2 (centres unmarked) [Trolox, trolox]
[1]
  Lipid Oxidation (%), FTC method: 32.2%
[2]
  Lipid Oxidation (%), TBARS method: 28.7%
[3]
  DPPH Scavenging activity: 38.5%
[3]; SD
  DPPH Scavenging activity: 38.46% ± 1.43%
[4]
  Hydroxyl radical scavenging activity: 70.03% ± 3.48%
[5]
  Superoxide anion scavenging activity: 63.48% ± 1.63%

## KLSDW
[3]
  Antioxidant activity (DPPH scavenging) of peptide compared with synthetic antioxidant: not significantly different from the synthetic BHA antioxidant

## SDNRNQGY
[7]
  ACE inhibitory activity of synthesized peptide compared with captopril: not significantly different from that of the positive control captopril

## WYGPD
[3]
  Antioxidant activity (DPPH scavenging) of peptide compared with synthetic antioxidant: not significantly different from the synthetic BHA antioxidant

## YPSPV
[7]
  ACE inhibitory activity of synthesized peptide compared with captopril: higher ACE inhibitory activity compared with captopril
